According to ChEMBL document CHEMBL4418299, “Compounds useful as csf1 modulators” (2016):
pIC50: −log10 of the molar value.

Target: Macrophage colony-stimulating factor 1 receptor (Homo sapiens, UniProt P07333)
Assay: Displacement of kinase tracer 236 from recombinant human His-tagged CSF1R cytoplasmic domain (538 to 910 residues) expressed in baculovirus-infected insect cells measured after 5 hrs by TR-FRET based LanthaScreen assay

Macrophage colony-stimulating factor 1 receptor, sequence (P07333 whole entry, the tested form may be a part): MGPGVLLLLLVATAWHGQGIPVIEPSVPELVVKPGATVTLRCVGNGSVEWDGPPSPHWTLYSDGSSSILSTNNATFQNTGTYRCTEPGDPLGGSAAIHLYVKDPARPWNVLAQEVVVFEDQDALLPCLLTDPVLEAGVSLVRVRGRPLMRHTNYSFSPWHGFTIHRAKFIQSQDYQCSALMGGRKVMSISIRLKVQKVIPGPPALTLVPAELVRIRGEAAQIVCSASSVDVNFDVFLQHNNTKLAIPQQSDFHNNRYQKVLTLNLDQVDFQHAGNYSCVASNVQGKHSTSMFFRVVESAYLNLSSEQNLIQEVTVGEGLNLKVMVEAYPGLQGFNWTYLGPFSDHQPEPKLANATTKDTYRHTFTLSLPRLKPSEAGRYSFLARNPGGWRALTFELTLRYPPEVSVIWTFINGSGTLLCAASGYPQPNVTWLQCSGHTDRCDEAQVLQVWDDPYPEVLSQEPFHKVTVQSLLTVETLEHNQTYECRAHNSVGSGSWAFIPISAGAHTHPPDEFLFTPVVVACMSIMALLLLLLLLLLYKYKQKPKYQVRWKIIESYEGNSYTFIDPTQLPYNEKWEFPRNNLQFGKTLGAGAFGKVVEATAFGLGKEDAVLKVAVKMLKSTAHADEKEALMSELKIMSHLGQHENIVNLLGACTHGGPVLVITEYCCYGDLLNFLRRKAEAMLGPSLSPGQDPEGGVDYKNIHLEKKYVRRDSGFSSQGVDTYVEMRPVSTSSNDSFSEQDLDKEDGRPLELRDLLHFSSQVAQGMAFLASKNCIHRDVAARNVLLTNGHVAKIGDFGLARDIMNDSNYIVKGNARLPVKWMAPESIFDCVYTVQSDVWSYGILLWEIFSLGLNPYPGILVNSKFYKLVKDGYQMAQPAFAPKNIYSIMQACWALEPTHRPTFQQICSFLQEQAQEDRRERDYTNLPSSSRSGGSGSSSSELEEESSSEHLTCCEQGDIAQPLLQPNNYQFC

Structure (SMILES) | pIC50
Cc1ccc(F)c(CC(=O)Nc2ccc(-n3c4c(c5ncnc(N)c53)COC4)cc2F)c1 | < 6.70
COc1cc(-n2c3c(c4ncnc(N)c42)CCC3)ccc1NC(=O)Cc1ccc(C(F)(F)F)nc1 | > 8.00
COc1cc(-n2c3c(c4ncnc(N)c42)CCC3)ccc1CC(=O)N1CCOc2ccccc21 | > 8.00
COc1cc(-n2c3c(c4ncnc(N)c42)CCC3)ccc1NC(=O)Cc1nccc(C(F)(F)F)n1 | 6.70 to 8.00
COc1cc(-n2c3c(c4ncnc(N)c42)COC3)ccc1NC(=O)Cc1cc(C)ccc1F | 6.70 to 8.00
Nc1ncnc2c3c(n(-c4ccc(CC(=O)Nc5cnc(C(F)(F)F)nc5)cc4)c12)CCC3 | 6.70 to 8.00
Nc1ncnc2c3c(n(-c4ccc(NC(=O)Cc5ccc(Cl)c(C(F)(F)F)c5)cc4)c12)CCC3 | 7.85
Nc1ncnc2c3c(n(-c4ccc(NC(=O)Cc5coc(-c6ccccc6)n5)cc4)c12)CCC3 | 6.70 to 8.00
COc1cc(CC(=O)Nc2ccc(-n3c4c(c5ncnc(N)c53)CCC4)cc2OC)ccc1C | > 8.00
COc1cc(-n2c3c(c4ncnc(N)c42)COC3)ccc1NC(=O)Cc1ccccc1 | > 8.00
Nc1ncnc2c3c(n(-c4ccc(CC(=O)NCc5ccccc5)cc4)c12)CCC3 | 6.70 to 8.00
COc1ccc(CC(=O)Nc2ccc(-n3c4c(c5ncnc(N)c53)COC4)cc2F)c(F)c1 | < 6.70
Cc1ccc(CC(=O)Nc2ccc(-n3c4c(c5ncnc(N)c53)COC4)cc2)cc1F | 6.70 to 8.00
Nc1ncnc2c3c(n(-c4ccc(NC(=O)Cc5ccc(O)cc5)cc4)c12)CCC3 | 7.54
Cn1cc(CCC(=O)Nc2ccc(-n3c4c(c5ncnc(N)c53)CCC4)cc2)c2ccccc21 | 6.70 to 8.00
COc1ccc(NC(=O)Cc2ccc(-n3c4c(c5ncnc(N)c53)CCC4)cc2)nn1 | < 6.70
COc1cc(-n2c3c(c4ncnc(N)c42)CCC3)ccc1CC(=O)Nc1cc(C)ccc1F | > 8.00
CN(C)c1cc(CC(=O)Nc2ccc(-n3c4c(c5ncnc(N)c53)CCC4)cc2)ccc1C(F)(F)F | 6.70 to 8.00
Nc1ncnc2c3c(n(-c4ccc(NC(=O)CCCN5CCOCC5)cc4)c12)CCC3 | 6.70 to 8.00
COc1cc(-n2c3c(c4ncnc(N)c42)COC3)ccc1NC(=O)CN1CCOc2ccccc21 | < 6.70

Structure (SMILES) | pIC50
COc1ccc(NC(=O)Cc2ccc(-n3c4c(c5ncnc(N)c53)CCC4)cc2OC)c(F)c1 | > 8.00
COc1cc(-n2c3c(c4ncnc(N)c42)COC3)ccc1NC(=O)Cc1cc(C(F)(F)F)ccc1F | 6.70 to 8.00
COc1cc(-n2c3c(c4ncnc(N)c42)COC3)ccc1NC(=O)Cc1ccnc(C(F)(F)F)n1 | < 6.70
COc1cc(-n2c3c(c4ncnc(N)c42)CCC3)ccc1NC(=O)Cc1cc(C(F)(F)F)ccc1F | 6.70 to 8.00
Nc1ncnc2c3c(n(-c4ccc(NC(=O)Cc5ccccc5)c(F)c4)c12)CCC3 | < 6.70
COc1cc(-n2c3c(c4ncnc(N)c42)CCC3)ccc1NC(=O)Cc1ccccc1 | 6.70 to 8.00
Cn1ccc(CC(=O)Nc2ccc(-n3c4c(c5ncnc(N)c53)CCC4)cc2)n1 | < 6.70
COc1cc(-n2c3c(c4ncnc(N)c42)CCC3)ccc1NC(=O)Cc1ccc(C)cc1F | > 8.00
Nc1ncnc2c3c(n(-c4ccc(NC(=O)Cc5ccc6c(c5)OCO6)cc4)c12)CCC3 | 6.70 to 8.00
Cc1cnc(CC(=O)Nc2ccc(-n3c4c(c5ncnc(N)c53)CCC4)cc2)c(F)c1 | 6.70 to 8.00
COc1cc(-n2c3c(c4ncnc(N)c42)CCC3)ccc1NC(=O)Cc1ccc(C)c(F)c1 | > 8.00
COc1ccc(CC(=O)Nc2ccc(-n3c4c(c5ncnc(N)c53)COC4)cc2OC)cn1 | 6.70 to 8.00
COc1cc(-n2c3c(c4ncnc(N)c42)CCC3)ccc1NC(=O)Cc1ncc(C)cc1F | 6.70 to 8.00
Nc1ncnc2c3c(n(-c4ccc(NC(=O)Cc5ccncc5)cc4)c12)CCC3 | < 6.70
CC(=O)N1CCC(CC(=O)Nc2ccc(-n3c4c(c5ncnc(N)c53)CCC4)cc2)CC1 | < 6.70
Nc1ncnc2c3c(n(-c4ccc(NC(=O)Cc5ccc(Cl)nn5)cc4)c12)COC3 | < 6.70
COc1cc(-n2c3c(c4ncnc(N)c42)COC3)ccc1NC(=O)Cc1ccc(OC)c(C(F)(F)F)c1 | > 8.00
Cn1cc(CC(=O)Nc2ccc(-n3c4c(c5ncnc(N)c53)CCC4)cc2)cn1 | 6.70 to 8.00
Nc1ncnc2c3c(n(-c4ccc(NC(=O)[C@@H](N)c5ccccc5)cc4)c12)CCC3 | < 6.70
COc1cccc(CC(=O)Nc2ccc(-n3c4c(c5ncnc(N)c53)CCC4)cc2)n1 | 6.70 to 8.00

The remaining lines, values ahead:

pIC50 | Structure (SMILES)
6.70 to 8.00 | Nc1ncnc2c3c(n(-c4ccc(NC(=O)Cc5cnn(-c6ccccc6)c5)cc4)c12)CCC3
< 6.70 | Nc1ncnc2c3c(n(-c4ccc(NC(=O)C(F)c5ccccc5)cc4)c12)CCC3 (stereo not drawn)
6.70 to 8.00 | COc1ccc(CC(=O)Nc2ccc(-n3c4c(c5ncnc(N)c53)CCC4)cc2OC)nc1
< 6.70 | COc1cc(-n2c3c(c4ncnc(N)c42)COC3)ccc1NC(=O)Cc1nccc(C(F)(F)F)n1
6.70 to 8.00 | Nc1ncnc2c3c(n(-c4ccc(NC(=O)Cc5ccnc(C(F)(F)F)c5)cc4)c12)COC3
6.70 to 8.00 | COc1cc(-n2c3c(c4ncnc(N)c42)CCC3)ccc1NC(=O)Cc1ccnc(C(F)(F)F)n1
< 6.70 | COc1cc(-n2c3c(c4ncnc(N)c42)COC3)ccc1NC(=O)CN1C(=O)COc2ccccc21
6.70 to 8.00 | COc1ccc(CC(=O)Nc2ccc(-n3c4c(c5ncnc(N)c53)COC4)cc2)c(F)c1
6.70 to 8.00 | COc1cc(-n2c3c(c4ncnc(N)c42)COC3)ccc1NC(=O)Cc1ccc(C(F)(F)F)nc1
6.70 to 8.00 | Nc1ncnc2c3c(n(-c4ccc(NC(=O)Cc5cc(C(F)(F)F)ccc5Cl)cc4)c12)CCC3
6.70 to 8.00 | COc1cc(-n2c3c(c4ncnc(N)c42)CCC3)ccc1NC(=O)Cc1ccc(Cl)c(C(F)(F)F)c1
< 6.70 | CN1CCN(CC(=O)Nc2ccc(-n3c4c(c5ncnc(N)c53)CCC4)cc2)CC1
< 6.70 | Nc1ncnc2c3c(n(-c4ccc(NC(=O)Cc5ccccc5)nc4)c12)CCC3
> 8.00 | COc1ccccc1CC(=O)Nc1ccc(-n2c3c(c4ncnc(N)c42)CCC3)cc1
7.49 | COc1cc(-n2c3c(c4ncnc(N)c42)COC3)ccc1NC(=O)Cc1cnc2c(ccn2C)c1
6.70 to 8.00 | COc1cc(-n2c3c(c4ncnc(N)c42)CCC3)ccc1CC(=O)Nc1ccccc1
< 6.70 | Nc1ncnc2c3c(n(-c4ccc(CC(=O)Nc5cccnc5)cc4)c12)CCC3
6.70 to 8.00 | Nc1ncnc2c3c(n(-c4ccc(NC(=O)Cc5ccc(C(F)(F)F)nc5)cc4)c12)COC3
> 8.00 | COc1cc(-n2c3c(c4ncnc(N)c42)CCC3)ccc1NC(=O)Cc1ccnc(C(F)(F)F)c1
6.70 to 8.00 | COc1cc(-n2c3c(c4ncnc(N)c42)CCC3)ccc1NC(=O)CN1C(=O)COc2ccccc21
> 8.00 | COc1cc(-n2c3c(c4ncnc(N)c42)CCC3)ccc1NC(=O)Cc1ccccn1
< 6.70 | COc1cc(-n2c3c(c4ncnc(N)c42)CCC3)ccc1NC(=O)Cc1cnccn1
> 8.00 | Cn1ccc2cc(CC(=O)Nc3ccc(-n4c5c(c6ncnc(N)c64)CCC5)cc3)cnc21
6.70 to 8.00 | NC(=O)c1ccc(CC(=O)Nc2ccc(-n3c4c(c5ncnc(N)c53)CCC4)cc2)cc1C(F)(F)F
6.70 to 8.00 | COc1cccc(CC(=O)Nc2ccc(-n3c4c(c5ncnc(N)c53)CCC4)cc2OC)n1
> 8.00 | COc1cc(-n2c3c(c4ncnc(N)c42)CCC3)ccc1CC(=O)Nc1ccc(C(F)(F)F)cn1
6.70 to 8.00 | Nc1ncnc2c3c(n(-c4ccc(NC(=O)Cc5c(F)cc(Cl)cc5F)cc4)c12)CCC3

pIC50 | Structure (SMILES)
> 8.00 | N#Cc1ccc(CC(=O)Nc2ccc(-n3c4c(c5ncnc(N)c53)CCC4)cc2)cc1
6.70 to 8.00 | Nc1ncnc2c3c(n(-c4ccc(NC(=O)CC5CCN(C(=O)OCc6ccccc6)CC5)cc4)c12)CCC3
8.05 | COc1cc(-n2c3c(c4ncnc(N)c42)CCC3)ccc1NC(=O)Cc1ccc(C(F)(F)F)nn1
6.70 to 8.00 | Nc1ncnc2c3c(n(-c4ccc(NC(=O)Cc5cccnc5)cc4)c12)CCC3
7.30 | COc1cc(-n2c3c(c4ncnc(N)c42)COC3)ccc1NC(=O)Cc1ccnc(C(F)(F)F)c1
> 8.00 | COc1cc(-n2c3c(c4ncnc(N)c42)CCC3)ccc1CC(=O)Nc1ccc(C(F)(F)F)nc1
> 8.00 | COc1cc(-n2c3c(c4ncnc(N)c42)CCC3)ccc1NC(=O)Cc1ccc2c(ccn2C)c1
< 6.70 | Nc1ncnc2c3c(n(-c4ccc(NC(=O)[C@@H](N)Cc5ccccc5)cc4)c12)CCC3
6.70 to 8.00 | Nc1ncnc2c3c(n(-c4ccc(CC(=O)NC5CCCCC5)cc4)c12)CCC3
6.70 to 8.00 | COc1ccc(CC(=O)Nc2ccc(-n3c4c(c5ncnc(N)c53)CCC4)cc2OC)cn1
7.85 | COc1ccc(CC(=O)Nc2ccc(-n3c4c(c5ncnc(N)c53)COC4)cc2)cc1F
6.70 to 8.00 | COc1cc(-n2c3c(c4ncnc(N)c42)CCC3)ccc1NC(=O)Cc1cc(C)no1
> 8.00 | COc1ccc(CC(=O)Nc2ccc(-n3c4c(c5ncnc(N)c53)CCC4)cc2OC)cc1C
> 8.00 | Nc1ncnc2c3c(n(-c4ccc(NC(=O)Cc5ccccc5)cc4)c12)COC3
> 8.00 | COc1cc(-n2c3c(c4ncnc(N)c42)CCC3)ccc1NC(=O)Cc1cnc2c(ccn2C)c1
> 8.00 | COc1cc(-n2c3c(c4ncnc(N)c42)COC3)ccc1NC(=O)Cc1ccc(Cl)c(C(F)(F)F)c1
6.70 to 8.00 | COc1ccc(CC(=O)Nc2ccc(-n3c4c(c5ncnc(N)c53)COC4)cc2OC)cc1F
< 6.70 | Nc1ncnc2c3c(n(-c4ccc(NC(=O)CN5CCCC5)cc4)c12)CCC3
6.70 to 8.00 | Nc1ncnc2c3c(n(-c4ccc(NC(=O)Cc5ccc(C(F)(F)F)nn5)cc4)c12)COC3
6.70 to 8.00 | COc1cc(-n2c3c(c4ncnc(N)c42)CCC3)ccc1NC(=O)Cc1coc(-c2ccccc2)n1
< 6.70 | Nc1ncnc2c3c(n(-c4ccc(NC(=O)CN5CCOCC5)cc4)c12)CCC3
< 6.70 | Nc1ncnc2c3c(n(-c4ccc(NC(=O)Cn5ccnc5)cc4)c12)CCC3
6.70 to 8.00 | Nc1ncnc2c3c(n(-c4ccc(NC(=O)CCc5ccccc5)cc4)c12)CCC3
> 8.00 | COc1ccc(CC(=O)Nc2ccc(-n3c4c(c5ncnc(N)c53)CCC4)cc2OC)cc1F
6.70 to 8.00 | COc1cc(-n2c3c(c4ncnc(N)c42)COC3)ccc1NC(=O)Cc1ccc(C(F)(F)F)nn1
6.70 to 8.00 | Cn1cc(C(=O)Nc2ccc(-n3c4c(c5ncnc(N)c53)CCC4)cc2)c2ccccc21
